GI50 and TGI data for six compounds are collected here from PubChem BioAssay (NCI).

Among the test systems are HOP-92 NSCLC; HCT-15 colon; LOX IMVI melanoma; SK-MEL-5 melanoma; BT-549 breast; A549 NSCLC; HCC-2998 colon; MALME-3M melanoma; HT29 colon; CCRF-CEM leukemia.
Holding throughout (assay): growth of human tumour cells (NCI), 48 h

The structures appear in SMILES notation.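 Cultured in 96-well plates, cells were exposed to test compound for 48 hours across five concentrations. At the GI50, growth is halved. The concentration for full growth arrest is given as TGI.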

For the compound `O=C(CCCCCCSc1nc(-c2ccccc2)cc(-c2ccc(Cl)cc2)n1)NO`, the GI50 in the experiment with HOP-92 NSCLC was 1.75 µM; in the experiment on HCT-15 colon it was 2.27 µM; in the experiment with LOX IMVI melanoma, 2.06 µM; in the experiment with SK-MEL-5 melanoma, 1.69 µM; in the experiment on BT-549 breast, 3.67 µM; with A549 NSCLC it was 2.16 µM. The GI50 in the experiment with HCC-2998 colon is 2.44 µM; with MALME-3M melanoma, 1.25 µM; with HT29 colon, 2.05 µM; in the experiment with CCRF-CEM leukemia it was 0.629 µM. For the same compound, the TGI was 5.44 µM in the experiment with HOP-92 NSCLC; 14 µM in the experiment on HCT-15 colon; 4.66 µM in the experiment on LOX IMVI melanoma; 3.93 µM in the experiment with SK-MEL-5 melanoma; 17.5 µM with BT-549 breast; 6.23 µM with A549 NSCLC. Moreover, the TGI was 7.19 µM with HCC-2998 colon, 9.05 µM in the experiment with MALME-3M melanoma, 11.4 µM with HT29 colon and 6.49 µM in the experiment on CCRF-CEM leukemia.
Turning to `COc1cc(O)c([C@@H]2C[C@H](CCc3ccc(O)cc3)O[C@H](c3ccc(O)cc3)C2)c(O)c1C(=O)/C=C/c1ccc(O)cc1`, the GI50 is 2.2 µM with HOP-92 NSCLC; 2.45 µM in the experiment with HCT-15 colon; 1.93 µM in the experiment with LOX IMVI melanoma; 2.11 µM with SK-MEL-5 melanoma; 2.39 µM in the experiment on BT-549 breast; 3.33 µM with A549 NSCLC. In addition, the GI50 with HCC-2998 colon is 0.558 µM; in the experiment with MALME-3M melanoma, 3.39 µM; with HT29 colon it was 3.31 µM; with CCRF-CEM leukemia it was 2.32 µM. Moreover, the TGI with HOP-92 NSCLC was found to be 4.96 µM; in the experiment on HCT-15 colon, 6.88 µM; in the experiment on LOX IMVI melanoma, 3.63 µM; in the experiment with SK-MEL-5 melanoma, 6.05 µM; in the experiment on BT-549 breast it was 5.34 µM; in the experiment with A549 NSCLC it was 25.1 µM. The TGI with HCC-2998 colon is 1.73 µM; with MALME-3M melanoma it was greater than 30.8 µM; in the experiment on HT29 colon it was 10.2 µM; in the experiment with CCRF-CEM leukemia, 7.36 µM.
For `COc1cc2c(cc1OC)C(=O)/C(=C/c1cccc(OCC(=O)c3ccccc3)c1)C2`, the GI50 in the experiment with HOP-92 NSCLC is 0.569 µM; in the experiment with HCT-15 colon, 9.3 µM; with LOX IMVI melanoma, 18.3 µM; with SK-MEL-5 melanoma, 4.24 µM; in the experiment with BT-549 breast, 24.9 µM; with A549 NSCLC, 26.6 µM. The GI50 in the experiment on HCC-2998 colon was 73.1 µM; in the experiment on MALME-3M melanoma, 25.1 µM; in the experiment with HT29 colon, 12.9 µM; with CCRF-CEM leukemia, 2.17 µM. Besides, the TGI in the experiment with HOP-92 NSCLC is 27.8 µM; in the experiment with HCT-15 colon it was greater than 100 µM; with LOX IMVI melanoma, greater than 100 µM; in the experiment on SK-MEL-5 melanoma it was greater than 100 µM; with BT-549 breast it was greater than 100 µM; with A549 NSCLC, greater than 100 µM. In addition, the TGI is greater than 100 µM in the experiment on HCC-2998 colon, greater than 100 µM with MALME-3M melanoma, greater than 100 µM in the experiment with HT29 colon and 7.31 µM in the experiment with CCRF-CEM leukemia.
`COC(=O)N[C@H]1CCc2c(Br)c(OC)c(OC)c(OC)c2-c2ccc(SC)c(=O)cc21`: the GI50 was less than 0.0171 µM in the experiment on HOP-92 NSCLC; less than 0.01 µM in the experiment with HCT-15 colon; less than 0.01 µM with LOX IMVI melanoma; less than 0.01 µM with SK-MEL-5 melanoma; less than 0.01 µM with BT-549 breast; less than 0.01 µM with A549 NSCLC. Moreover, the GI50 in the experiment on HCC-2998 colon was less than 0.01 µM; in the experiment on MALME-3M melanoma it was 0.0148 µM; with HT29 colon it was less than 0.01 µM; with CCRF-CEM leukemia, less than 0.01 µM. For the same compound, the TGI in the experiment with HOP-92 NSCLC is 5.17 µM; in the experiment on HCT-15 colon, 11.6 µM; with LOX IMVI melanoma, 12 µM; in the experiment with SK-MEL-5 melanoma it was 0.0182 µM; in the experiment on BT-549 breast, 14.9 µM; with A549 NSCLC, greater than 52.6 µM. For the same compound, the TGI with HCC-2998 colon is 11.5 µM; in the experiment on MALME-3M melanoma, 30.5 µM; with HT29 colon it was 18.8 µM; in the experiment with CCRF-CEM leukemia, 24.9 µM.
In the case of `O=C(CN1CCN(c2ncccn2)CC1)Nc1ccc(Cl)cc1C(=O)c1ccccc1Cl`, the GI50 is 5.73 µM in the experiment on HOP-92 NSCLC; greater than 100 µM in the experiment on HCT-15 colon; greater than 100 µM with LOX IMVI melanoma; 52.4 µM in the experiment on SK-MEL-5 melanoma; greater than 100 µM in the experiment with BT-549 breast; 47.6 µM in the experiment with A549 NSCLC. Moreover, the GI50 was greater than 100 µM with HCC-2998 colon, greater than 100 µM with MALME-3M melanoma, 63.6 µM in the experiment on HT29 colon and 83.5 µM in the experiment on CCRF-CEM leukemia. For the same compound, the TGI in the experiment on HOP-92 NSCLC is 75.1 µM; in the experiment on HCT-15 colon, greater than 100 µM; with LOX IMVI melanoma, greater than 100 µM; in the experiment with SK-MEL-5 melanoma, greater than 100 µM; in the experiment with BT-549 breast it was greater than 100 µM; in the experiment on A549 NSCLC, greater than 100 µM. For the same compound, the TGI in the experiment on HCC-2998 colon, with MALME-3M melanoma, in the experiment with HT29 colon and with CCRF-CEM leukemia was greater than 100 µM in each case.
As to `N=C1C(c2nc(-c3ccc(Br)cc3)cs2)=C(O)CN1Cc1cccnc1`, the GI50 with HOP-92 NSCLC is 22.2 µM; in the experiment with HCT-15 colon, 24.4 µM; in the experiment on LOX IMVI melanoma, 12 µM; with SK-MEL-5 melanoma it was 4.35 µM; in the experiment on BT-549 breast, 42.6 µM; in the experiment on A549 NSCLC, 26.6 µM. Further, the GI50 in the experiment with HCC-2998 colon is 24.3 µM; with MALME-3M melanoma, 14.6 µM; in the experiment on HT29 colon, 13.4 µM; in the experiment on CCRF-CEM leukemia, 4.28 µM. Further, the TGI in the experiment on HOP-92 NSCLC is 84.1 µM; in the experiment with HCT-15 colon, greater than 100 µM; with LOX IMVI melanoma, 29.4 µM; in the experiment on SK-MEL-5 melanoma, 32.5 µM; with BT-549 breast it was greater than 100 µM; with A549 NSCLC it was greater than 100 µM. Moreover, the TGI with HCC-2998 colon is 80.4 µM; in the experiment with MALME-3M melanoma, greater than 100 µM; in the experiment with HT29 colon it was greater than 100 µM; with CCRF-CEM leukemia it was 65.8 µM.
